Data on two compounds can be found in patent US20250041254A1, “USE OF SODIUM FORMATE IN PREPARATION OF AN ANTI-INFECTIVE DRUG” (priority 2022, published 2025).

SMILES strings stand for the structures.

Common to all, as to type: cell-based
The test system of experiment [1] is clinical multidrug-resistant but carbapenem-sensitive Escherichia coli (MDR-EC). Description: Survival rate (dot plate counting) of clinical multidrug-resistant but carbapenem-sensitive Escherichia coli, 18 strains. The following applies: 10 hours. As to the method:
(§1) Single bacterial colonies were selected and inoculated into a 5 mL LB medium, cultivated at 37° C. (clinically multidrug-resistant and carbapenem-resistant or multidrug-resistant but carbapenem-sensitive Escherichia coli, clinically multidrug-resistant and carbapenem-resistant or multidrug-resistant but carbapenem-sensitive Klebsiella pneumoniae, clinically multidrug-resistant and carbapenem-resistant or multidrug-resistant but carbapenem-sensitive Pseudomonas aeruginosa, methicillin-resistant Staphylococcus aureus, and sensitive bacteria for each type of bacteria) or 30° C. […]
(§2) Thirty-six clinical multidrug-resistant Escherichia coli samples were prepared according to Embodiment 1, of which 18 were clinical multidrug-resistant and carbapenem-resistant Escherichia coli (abbreviated as CR-EC) and 18 were clinical multidrug-resistant but carbapenem-sensitive Escherichia coli (abbreviated as MDR-EC). […] The number of bacteria was counted. […]

Experiment [2] relates to clinical multidrug-resistant and carbapenem-resistant Escherichia coli (CR-EC). Put plainly: Survival rate (dot plate counting) of clinical multidrug-resistant and carbapenem-resistant Escherichia coli, 18 strains. The following applies: 10 hours. As to the method:
as §1, §2

The test system of experiment [3] is clinically multidrug-resistant and carbapenem-resistant Escherichia coli strain No. 28. Description: Live bacterial count / survival rate of CR Escherichia coli strain No. 28 (antibiotic concentration, sodium formate concentration, time, other antibiotics). The protocol: Single bacterial colonies were selected and inoculated into a 5 mL LB medium, cultivated at 37° C. (clinically multidrug-resistant and carbapenem-resistant or multidrug-resistant but carbapenem-sensitive Escherichia coli, clinically multidrug-resistant and carbapenem-resistant or multidrug-resistant but carbapenem-sensitive Klebsiella pneumoniae, clinically multidrug-resistant and carbapenem-resistant or multidrug-resistant but carbapenem-sensitive Pseudomonas aeruginosa, methicillin-resistant Staphylococcus aureus, and sensitive bacteria for each type of bacteria) or 30° C. (Edwardsiella tarda and Vibrio) at 200 rpm for 16-24 hours; an appropriate amount of a bacterial solution was taken for centrifugation at 8000 rpm for 5 min to collect bacterial cells, the supernatant was removed, and the bacterial cells were washed with an equal volume of 0.85% normal saline for 3 times and suspended in M9 medium (containing 10 mM proline, 2 mM MgSO4. 0.1 mM CaCl2)), and a base bacterial solution was cultured with M9 to an OD600 concentration of 0.6 and divided into 5 mL test tubes for later use.
Taking clinically multidrug-resistant and carbapenem-resistant Escherichia coli strain No. 28 as an example, adding different concentrations of sodium formate or different concentrations of antibiotics and under different treating times, the effect of improving the sensitivity of multidrug-resistant Escherichia coli to micronomicin was studied in depth.
To understand how sodium formate increased the sensitivity of bacteria to micronomicin at different antibiotic concentrations, on the basis of exogenous addition of 20 mM sodium formate, 30-480 μg/mL (several concentrations of) micronomicin was added to treat bacteria. No antibiotic addition was used as a control, and live bacterial counts were performed to compare the survival rates of bacteria with and without the addition of sodium formate at the same antibiotic concentration after 10 hours.
To investigate whether there was a gradient effect between the concentration of sodium formate and the bactericidal efficiency, as well as its optimal bactericidal concentration, different concentrations of sodium formate (0.625 mM-40 mM) were added on the basis of 60 μg/mL micronomicin addition for 10 hours, then live bacteria were counted, and the survival rate was calculated according to a formula as the following: the number of live bacteria with different concentrations of sodium formate addition/the number of live bacteria without sodium formate addition×100%.
Further research was conducted on adding 20 mM sodium formate and 60 μg/mL micronomicin and counting live bacteria at different time, and the relationship between its bactericidal efficiency and time was observed.
To investigate whether the addition of sodium formate is effective to antibiotics other than micronomicin in multidrug-resistant Escherichia coli, a clinical multidrug-resistant and carbapenem-resistant Escherichia coli sample No. 28 was prepared according to Embodiment 1, and 20 mM sodium formate and different kinds of antibiotics were added, respectively. After 10 hours of action, the number of live bacteria was counted, and the survival rate of the bacteria with different antibiotics was calculated after adding sodium formate.

For `O=C[O-].[Na+]` [sodium formate], the “killing effect on bacteria” value in experiment [1] (20 mM sodium formate alone) and in experiment [2] (20 mM sodium formate alone) was “no killing effect” each time.

For `CNC[C@@H]1CC[C@@H](N)[C@@H](O[C@H]2[C@H](O)[C@@H](O[C@H]3OC[C@](C)(O)[C@H](NC)[C@H]3O)[C@H](N)C[C@@H]2N)O1` [micronomicin], the survival rate result in experiment [1] (60 μg/mL micronomicin only, remaining 8 strains) is “less than 60%”; in experiment [3] (60 μg/mL micronomicin only, 6 hours), 87.96%; in experiment [3] (60 μg/mL micronomicin only, 16 hours), 72.72%; in experiment [3] (60 μg/mL micronomicin only, 24 hours) it was 34.64%; in experiment [3] (micronomicin 30 μg/mL without sodium formate, 10 hours) it was 100%; in experiment [3] (micronomicin 60 μg/mL without sodium formate, 10 hours), 77.37%. The survival rate is 35.87% in experiment [3] (micronomicin 120 μg/mL without sodium formate, 10 hours); 29.77% in experiment [3] (micronomicin 240 μg/mL without sodium formate, 10 hours); 29.01% in experiment [3] (micronomicin 480 μg/mL without sodium formate, 10 hours); 67-97% in experiment [2] (60 μg/mL micronomicin only, all 18 strains). Also, the “number of live bacteria” value in experiment [3] (60 μg/mL micronomicin only, 1-4 hours) is reported as “remained basically unchanged”. The bacterial survival rate in experiment [3] (sodium formate gradient experiment, control group: 60 μg/mL micronomicin without sodium formate, 10 hours) stood at 72.3%.
